For one experiment, the target named is T1, Ba/F3 BCR-FGFR2 (Homo sapiens, UniProt P21802).
T1 construct: BCR (fusion partner); host or cells: Ba/F3; the other entry of the earlier key: BCR (P11274, Breakpoint cluster region protein)
As to the kind of experiment: Ba/F3 cell viability assay (CellTiter-Glo 2.0). It counts as cell-based. The conditions noted are these: Ba/F3 cell data, BCR-FGFR2 fusion, 48 hours. For orientation: ATP-based viability assays read luminescence as a measure of living cells.

The target of another experiment is T2, Ba/F3 FGFR3-BAIAP2L1 (Homo sapiens, UniProt P22607).
T2 construct: BAIAP2L1 (fusion partner, Q9UHR4 if human); host or cells: Ba/F3; the other entry of the earlier key: BAIAP2L1 (Q9UHR4, BAR/IMD domain-containing adapter protein 2-like 1)
Nature of the experiment: Ba/F3 cell viability assay (CellTiter-Glo 2.0). It counts as cell-based. The note with it: Ba/F3 cell data, FGFR3-BAIAP2L1 fusion, 48 hours.

The target of the next experiment is T3, FGFR3 (Homo sapiens, UniProt P22607).
T3 construct: made in house; host or cells: E. coli (BL21-derived) infected with T7 phage
Nature of the experiment: Kinase binding assay (Kd), kinase-tagged T7 phage, affinity beads, qPCR. The note with it: in vitro binding assay, 11-point 3-fold dilution series. As to the method:
(§1) Kinase-tagged T7 phage strains were prepared in an E. coli host derived from the BL21 strain. E. coli were grown to log-phase and infected with T7 phage and incubated with shaking at 32° C. until lysis. The lysates were centrifuged and filtered to remove cell debris. Streptavidin-coated magnetic beads were treated with biotinylated small molecule ligands for 30 minutes at room temperature to generate affinity resins for kinase assays. The liganded beads were blocked with excess biotin and washed with blocking buffer SeaBlock (Pierce), 1% BSA, 0.05% Tween 20, 1 mM DTT to remove unbound ligand and to reduce non-specific binding. Binding reactions were assembled by combining kinases, liganded affinity beads, and test compounds in 1× binding buffer (20% SeaBlock, 0.17×PBS, 0.05% Tween 20, 6 mM DTT).
(§2) Test compounds were prepared as 111× stocks in 100% DMSO. Kds were determined using an 11-point 3-fold compound dilution series with three DMSO control points. All compounds for Kd measurements are distributed by acoustic transfer (non-contact dispensing) in 100% DMSO. The compounds were then diluted directly into the assays such that the final concentration of DMSO was 0.9%. All reactions performed in polypropylene 384-well plate. Each was a final volume of 0.02 ml. The assay plates were incubated at room temperature with shaking for 1 hour and the affinity beads were washed with wash buffer (1×PBS, 0.05% Tween 20). The beads were then re-suspended in elution buffer (1×PBS, 0.05% Tween 20, 0.5 μM non-biotinylated affinity ligand) and incubated at room temperature with shaking for 30 minutes. The kinase concentration in the eluates was measured by qPCR.
(§3) Binding constants were calculated with a standard dose-response curve using the Hill equation: […]
(§4) The Hill Slope was set to −1. Curves were fitted using a non-linear least square fit with the Levenberg-Marquardt algorithm.
(Real-time PCR tracks product formation cycle by cycle.)

The next experiment concerns the target T4, FGFR1 (Homo sapiens, UniProt P11362).
T4 construct: made in house; host or cells: E. coli (BL21-derived) infected with T7 phage
The description is as above. The note with it: in vitro binding assay, 11-point 3-fold dilution series. Here is the method: as §1, §2, §3, §4

The target of the next experiment is T5, FGFR4 (Homo sapiens, UniProt P22455).
T5 construct: made in house; host or cells: E. coli (BL21-derived) infected with T7 phage
Described as above. The conditions noted are these: in vitro binding assay, 11-point 3-fold dilution series. As to the method: as §1, §2, §3, §4

Another experiment deals with T6, FGFR3 (V555M) (Homo sapiens, UniProt P22607, V555M).
T6 construct: made in house; host or cells: E. coli (BL21-derived) infected with T7 phage
The experiment is described as above. The note with it: in vitro binding assay, 11-point 3-fold dilution series. Here is the method: as §1, §2, §3, §4

Another experiment has as its target T7, FGFR2 (Homo sapiens, UniProt P21802).
T7 construct: made in house; host or cells: E. coli (BL21-derived) infected with T7 phage
The description is as above. The note with it: in vitro binding assay, 11-point 3-fold dilution series. As to the method:
as §1, §2, §3, §4

The next experiment concerns the target T8, Ba/F3 ETV5-FGFR4 (Homo sapiens, UniProt P22455).
T8 construct: host or cells: Ba/F3; the other entry of the earlier key: ETV5 (P41161, ETS translocation variant 5)
As to the kind of experiment: Ba/F3 cell viability assay (CellTiter-Glo 2.0). It counts as cell-based. The note with it: Ba/F3 cell data, ETV5-FGFR4 fusion, 48 hours. The source says:
Experimental Purpose: Recombinant kinase fusions are transduced into parental Ba/F3, which becomes dependent upon this constitutive kinase activity for IL3-independent survival. Inhibition of kinase activity leads to cell death, which is monitored using CellTiter-Glo® 2.0 (Promega) which measures intracellular ATP concentration that in turn serves as a marker for viability. BCR-FGFR1 Ba/F3, BCR-FGFR2 and FGFR3-BAIAP2L1 Ba/F3 were obtained from Advanced Cellular Dynamics (Seattle, WA). ETV6-FGFR4 was obtained from Kyinno (Waltham, MA).
Cell Viability Assay Procedure: Cell Titer-Glo® 2.0 Luminescent cell viability assay reagent was purchased from Promega (Madison, WI). Ba/F3 cell lines were cultured in RPMI1640 media supplemented with 10% fetal bovine serum. Cultures were maintained at 37° C. in a humidified atmosphere of 5% CO2 and 95% air.
Cells were plated in 96-well clear bottom/white plates (Corning #3903) at 10,000 cells/well in 100 μl of media, incubated overnight. The next day, test compound DMSO stock solutions were made at 10 mM and 2 μM final concentration. Compounds were then added to cells in a 9-dose, 10-fold dilution series starting at 30 μM with an HP 300e Digital Dispenser (each dose was applied in triplicate). DMSO was backfilled to each well up to 301 nL total volume of test compound+DMSO, and a total of 301 nL DMSO was added to a control/no test compound well in triplicate. The cells in cell culture plates were incubated with the compounds at 37° C. and 5% CO2 for 48 hours. Then 50 μl of Cell Titer Glo 2.0 reagent was added to each well of the cell culture plates. The contents were covered from light and mixed on an orbital shaker at room temperature for 10 min. Luminescence was recorded by a Synergy H1 Microplate Reader (Biotek, Winooski, VT). Cells were assessed as a percentage of DMSO only treated control cells. Curves were plotted and IC50 values were calculated using the GraphPad Prism 8 program based on a sigmoidal dose-response equation (4 parameter).

In a further experiment the target is T9, Ba/F3 BCR-FGFR1 (Homo sapiens, UniProt P11362).
T9 construct: BCR (fusion partner); host or cells: Ba/F3; the other entry of the earlier key: BCR (P11274, Breakpoint cluster region protein)
As to the kind of experiment: Ba/F3 cell viability assay (CellTiter-Glo 2.0). The conditions noted are these: Ba/F3 cell data, BCR-FGFR1 fusion, 48 hours. It counts as cell-based.

T9 sequence (P11362 478-767 limits assumed): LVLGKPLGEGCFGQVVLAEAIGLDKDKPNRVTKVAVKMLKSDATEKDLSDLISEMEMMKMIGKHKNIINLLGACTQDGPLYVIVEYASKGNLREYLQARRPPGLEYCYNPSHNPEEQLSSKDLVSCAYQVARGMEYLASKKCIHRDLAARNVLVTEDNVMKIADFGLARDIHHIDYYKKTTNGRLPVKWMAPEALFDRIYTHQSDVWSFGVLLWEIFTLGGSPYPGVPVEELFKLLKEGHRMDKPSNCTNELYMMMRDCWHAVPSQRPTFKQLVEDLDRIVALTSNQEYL
T4 sequence (P11362 22-822): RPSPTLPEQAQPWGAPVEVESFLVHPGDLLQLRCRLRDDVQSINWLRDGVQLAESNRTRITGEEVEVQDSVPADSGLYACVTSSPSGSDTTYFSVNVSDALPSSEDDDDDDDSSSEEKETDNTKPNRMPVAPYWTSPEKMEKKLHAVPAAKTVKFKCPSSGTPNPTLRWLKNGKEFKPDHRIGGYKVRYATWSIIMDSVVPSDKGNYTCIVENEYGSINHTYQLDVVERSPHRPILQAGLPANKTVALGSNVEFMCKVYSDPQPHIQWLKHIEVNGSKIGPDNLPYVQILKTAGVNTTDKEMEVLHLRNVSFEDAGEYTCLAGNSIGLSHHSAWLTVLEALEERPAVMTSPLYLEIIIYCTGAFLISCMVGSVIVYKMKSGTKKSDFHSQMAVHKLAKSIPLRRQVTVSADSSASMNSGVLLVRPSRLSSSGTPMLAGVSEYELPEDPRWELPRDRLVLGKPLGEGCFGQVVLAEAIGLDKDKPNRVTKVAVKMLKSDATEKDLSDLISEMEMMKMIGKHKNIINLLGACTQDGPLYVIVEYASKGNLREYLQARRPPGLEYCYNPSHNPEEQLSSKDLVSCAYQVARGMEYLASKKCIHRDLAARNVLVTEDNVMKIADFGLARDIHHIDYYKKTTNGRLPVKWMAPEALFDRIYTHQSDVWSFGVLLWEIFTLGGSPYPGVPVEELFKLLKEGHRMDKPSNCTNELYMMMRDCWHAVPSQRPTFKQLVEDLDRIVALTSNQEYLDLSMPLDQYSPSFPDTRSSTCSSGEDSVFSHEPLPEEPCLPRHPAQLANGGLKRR
T7 sequence (P21802 22-821): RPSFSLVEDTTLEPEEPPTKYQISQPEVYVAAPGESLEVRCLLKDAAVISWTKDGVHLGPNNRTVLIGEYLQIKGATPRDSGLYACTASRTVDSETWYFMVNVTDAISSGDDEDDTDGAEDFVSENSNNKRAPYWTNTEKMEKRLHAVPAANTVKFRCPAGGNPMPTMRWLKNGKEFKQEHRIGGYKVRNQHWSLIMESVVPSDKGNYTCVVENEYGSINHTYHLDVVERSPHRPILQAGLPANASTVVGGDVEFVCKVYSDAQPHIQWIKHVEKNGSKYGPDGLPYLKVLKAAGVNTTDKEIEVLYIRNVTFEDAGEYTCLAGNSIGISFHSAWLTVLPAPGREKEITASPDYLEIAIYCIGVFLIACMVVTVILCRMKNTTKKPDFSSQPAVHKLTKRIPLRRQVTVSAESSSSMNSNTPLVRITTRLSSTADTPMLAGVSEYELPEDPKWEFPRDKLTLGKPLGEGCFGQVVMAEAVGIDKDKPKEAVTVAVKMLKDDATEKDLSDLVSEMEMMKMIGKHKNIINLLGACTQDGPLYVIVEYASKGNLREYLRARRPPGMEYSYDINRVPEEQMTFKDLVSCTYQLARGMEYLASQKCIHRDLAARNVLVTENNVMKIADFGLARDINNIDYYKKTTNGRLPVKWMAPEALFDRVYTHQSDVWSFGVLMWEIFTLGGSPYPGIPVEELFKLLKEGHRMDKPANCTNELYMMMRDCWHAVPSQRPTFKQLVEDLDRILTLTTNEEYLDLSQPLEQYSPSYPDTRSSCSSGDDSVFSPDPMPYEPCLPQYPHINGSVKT
T2 sequence (P22607 397-758 limits assumed): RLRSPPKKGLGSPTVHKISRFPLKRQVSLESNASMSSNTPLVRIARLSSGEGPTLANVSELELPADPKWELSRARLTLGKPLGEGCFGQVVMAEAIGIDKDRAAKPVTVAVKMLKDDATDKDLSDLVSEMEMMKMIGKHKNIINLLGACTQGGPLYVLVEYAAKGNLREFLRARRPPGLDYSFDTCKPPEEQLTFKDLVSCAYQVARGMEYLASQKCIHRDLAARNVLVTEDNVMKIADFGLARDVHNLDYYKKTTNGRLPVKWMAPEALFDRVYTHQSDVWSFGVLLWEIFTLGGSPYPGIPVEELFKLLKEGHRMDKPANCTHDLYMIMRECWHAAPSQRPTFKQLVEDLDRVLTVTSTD
T5 sequence (P22455 22-802): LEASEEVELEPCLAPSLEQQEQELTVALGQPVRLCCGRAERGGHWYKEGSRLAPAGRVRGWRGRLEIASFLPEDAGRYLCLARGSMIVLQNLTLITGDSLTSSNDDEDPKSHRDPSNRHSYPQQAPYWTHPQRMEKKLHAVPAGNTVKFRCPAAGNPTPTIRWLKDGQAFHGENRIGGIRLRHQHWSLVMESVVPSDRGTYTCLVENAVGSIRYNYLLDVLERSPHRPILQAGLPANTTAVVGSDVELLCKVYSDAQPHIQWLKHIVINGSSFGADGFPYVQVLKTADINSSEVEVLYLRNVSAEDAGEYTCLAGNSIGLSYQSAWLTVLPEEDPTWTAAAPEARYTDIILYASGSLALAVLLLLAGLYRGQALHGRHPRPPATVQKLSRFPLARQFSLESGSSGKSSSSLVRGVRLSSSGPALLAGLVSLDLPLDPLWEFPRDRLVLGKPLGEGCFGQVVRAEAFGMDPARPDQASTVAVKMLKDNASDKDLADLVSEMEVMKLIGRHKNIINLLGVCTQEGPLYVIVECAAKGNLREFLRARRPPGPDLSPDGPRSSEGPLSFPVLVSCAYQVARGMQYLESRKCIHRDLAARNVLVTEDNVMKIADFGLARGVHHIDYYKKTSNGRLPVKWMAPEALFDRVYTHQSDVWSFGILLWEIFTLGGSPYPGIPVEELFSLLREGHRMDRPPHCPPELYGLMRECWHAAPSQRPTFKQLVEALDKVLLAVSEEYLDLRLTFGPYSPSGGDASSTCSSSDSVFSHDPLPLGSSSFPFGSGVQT
T1 sequence (P21802 481-770 limits assumed): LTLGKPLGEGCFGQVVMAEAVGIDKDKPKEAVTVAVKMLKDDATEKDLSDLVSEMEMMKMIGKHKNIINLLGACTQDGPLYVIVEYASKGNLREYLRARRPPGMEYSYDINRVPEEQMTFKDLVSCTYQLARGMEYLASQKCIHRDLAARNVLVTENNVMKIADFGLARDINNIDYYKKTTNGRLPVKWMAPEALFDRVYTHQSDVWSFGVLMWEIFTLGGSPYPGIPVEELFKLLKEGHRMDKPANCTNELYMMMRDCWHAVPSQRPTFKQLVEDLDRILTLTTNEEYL
T8 sequence (P22455 467-755 limits assumed): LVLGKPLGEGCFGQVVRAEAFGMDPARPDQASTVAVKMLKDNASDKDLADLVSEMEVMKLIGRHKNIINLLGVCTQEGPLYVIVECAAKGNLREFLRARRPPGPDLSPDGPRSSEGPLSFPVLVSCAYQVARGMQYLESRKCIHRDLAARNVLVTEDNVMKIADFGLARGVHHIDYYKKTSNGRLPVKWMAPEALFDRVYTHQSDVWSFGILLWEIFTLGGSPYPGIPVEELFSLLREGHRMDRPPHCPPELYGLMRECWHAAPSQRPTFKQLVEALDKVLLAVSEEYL
T6 sequence (P22607 23-806 V555M): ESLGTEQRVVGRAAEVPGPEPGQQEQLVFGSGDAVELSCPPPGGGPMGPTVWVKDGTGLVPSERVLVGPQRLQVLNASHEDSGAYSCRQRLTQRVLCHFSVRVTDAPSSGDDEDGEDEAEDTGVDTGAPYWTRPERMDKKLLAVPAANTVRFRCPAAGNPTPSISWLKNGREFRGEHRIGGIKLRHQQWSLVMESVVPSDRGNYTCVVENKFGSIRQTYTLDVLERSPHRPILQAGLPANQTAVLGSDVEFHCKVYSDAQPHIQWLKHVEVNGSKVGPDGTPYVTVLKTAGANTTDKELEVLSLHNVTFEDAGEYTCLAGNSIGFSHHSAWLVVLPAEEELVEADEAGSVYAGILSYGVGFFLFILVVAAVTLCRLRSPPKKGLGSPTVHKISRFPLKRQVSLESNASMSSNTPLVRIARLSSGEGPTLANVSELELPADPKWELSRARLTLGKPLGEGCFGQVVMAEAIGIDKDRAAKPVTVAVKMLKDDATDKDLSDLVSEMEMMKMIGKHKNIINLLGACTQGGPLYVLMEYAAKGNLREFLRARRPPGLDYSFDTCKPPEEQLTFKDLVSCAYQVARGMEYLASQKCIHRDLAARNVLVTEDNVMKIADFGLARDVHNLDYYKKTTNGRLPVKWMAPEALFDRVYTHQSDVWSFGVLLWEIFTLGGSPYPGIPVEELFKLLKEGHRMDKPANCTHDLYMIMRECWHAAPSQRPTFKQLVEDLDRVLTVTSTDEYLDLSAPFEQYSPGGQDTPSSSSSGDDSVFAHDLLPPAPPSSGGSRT
T3 sequence (P22607 23-806): as the sequence (P22607 23-806 V555M) above, with M533V counted along it

For the molecule `C=CC(=O)N1CCC2(CC1)CC(n1ncc(-c3cc(OC(CO)c4ccnn4C)c4c(C#N)cnn4c3)c1C)C2` (stereo not drawn) [Example 11, 6-(1-(7-acryloyl-7-azaspiro[3.5]nonan-2-yl)-5-methyl-1H-pyrazol-4-yl)-4-(2-hydroxy-1-(1-methyl-1H-pyrazol-5-yl)ethoxy)pyrazolo[1,5-a]pyridine-3-carbonitrile], the Kd on Ba/F3 BCR-FGFR2 is no less than 1000 nM; at Ba/F3 FGFR3-BAIAP2L1 it was 250 to 1000 nM; at FGFR3 it was 100 to 250 nM; at FGFR1 it was 250 to 1000 nM; on FGFR4, 250 to 1000 nM; on FGFR3 (V555M), 100 to 250 nM. Also, the figures for the Kd on FGFR2, at Ba/F3 ETV5-FGFR4 and on Ba/F3 BCR-FGFR1 were 100 to 250 nM, no less than 1000 nM and no less than 1000 nM, respectively.
On to `C=CC(=O)N1CCC2(CC1)CC(n1ncc(-c3cc(OC(CO)c4cncc5ccccc45)c4c(C#N)cnn4c3)c1C)C2` (stereo not drawn) [Example 15, 6-(1-(7-acryloyl-7-azaspiro[3.5]nonan-2-yl)-5-methyl-1H-pyrazol-4-yl)-4-(2-hydroxy-1-(isoquinolin-4-yl)ethoxy)pyrazolo[1,5-a]pyridine-3-carbonitrile], for which the Kd lay within 100 to 250 nM at Ba/F3 BCR-FGFR2; 0.1 to 100 nM on Ba/F3 FGFR3-BAIAP2L1; 0.1 to 100 nM at FGFR3; 0.1 to 100 nM on FGFR1; 0.1 to 100 nM on FGFR4; 0.1 to 100 nM on FGFR3 (V555M). The Kd was 0.1 to 100 nM at FGFR2, 250 to 1000 nM at Ba/F3 ETV5-FGFR4 and 100 to 250 nM at Ba/F3 BCR-FGFR1.
Take `C=CC(=O)N1CCC2(CC1)CC(n1nnc(-c3cc(O[C@@H](CO)c4ccc(F)cn4)c4c(C#N)cnn4c3)c1C)C2` [Example 12, (R)-6-(1-(7-acryloyl-7-azaspiro[3.5]nonan-2-yl)-5-methyl-1H-1,2,3-triazol-4-yl)-4-(1-(5-fluoropyridin-2-yl)-2-hydroxyethoxy)pyrazolo[1,5-a]pyridine-3-carbonitrile]: the Kd was no less than 1000 nM at Ba/F3 BCR-FGFR2; 250 to 1000 nM at Ba/F3 FGFR3-BAIAP2L1; 100 to 250 nM at FGFR3; 250 to 1000 nM on FGFR1; no less than 1000 nM at FGFR4; 250 to 1000 nM on FGFR3 (V555M). In addition, the Kd on FGFR2 is 250 to 1000 nM; at Ba/F3 ETV5-FGFR4, no less than 1000 nM; on Ba/F3 BCR-FGFR1, no less than 1000 nM.
`COC1(C(=O)N2CCC(n3nnc(-c4cc(OC(CO)c5ccccn5)c5c(C#N)cnn5c4)c3C)CC2)CN(C(=O)/C=C/CN(C)C)C1` (stereo not drawn) [Example 23, (E)-6-(1-(1-(1-(4-(dimethylamino)but-2-enoyl)-3-methoxyazetidine-3-carbonyl)piperidin-4-yl)-5-methyl-1H-1,2,3-triazol-4-yl)-4-(2-hydroxy-1-(pyridin-2-yl)ethoxy)pyrazolo[1,5-a]pyridine-3-carbonitrile]: the Kd is no less than 1000 nM at Ba/F3 BCR-FGFR2; 250 to 1000 nM at Ba/F3 FGFR3-BAIAP2L1; 0.1 to 100 nM on FGFR3; 0.1 to 100 nM at FGFR1; 0.1 to 100 nM at FGFR4; 0.1 to 100 nM at FGFR3 (V555M). In addition, the values for the Kd on FGFR2, on Ba/F3 ETV5-FGFR4 and at Ba/F3 BCR-FGFR1 were 0.1 to 100 nM, no less than 1000 nM and no less than 1000 nM, respectively.
For the molecule `C=CC(=O)N1CCC2(CC1)CC(n1ncc(-c3cc(O[C@@H](CO)c4ccccn4)c4c(C#N)cnn4c3)c1C)C2` [Example 7, (R)-6-(1-(7-acryloyl-7-azaspiro[3.5]nonan-2-yl)-5-methyl-1H-pyrazol-4-yl)-4-(2-hydroxy-1-(pyridin-2-yl)ethoxy)pyrazolo[1,5-a]pyridine-3-carbonitrile], the Kd fell in the range of 250 to 1000 nM on Ba/F3 BCR-FGFR2; 100 to 250 nM on Ba/F3 FGFR3-BAIAP2L1; 100 to 250 nM on FGFR3; 250 to 1000 nM on FGFR1; 250 to 1000 nM at FGFR4; 250 to 1000 nM at FGFR3 (V555M). Also, the Kd is 100 to 250 nM at FGFR2, 250 to 1000 nM at Ba/F3 ETV5-FGFR4 and no less than 1000 nM on Ba/F3 BCR-FGFR1.
For the molecule `C=CC(=O)N1CC(OC)(C(=O)N2CCC(n3nnc(-c4cc(O[C@@H](CO)c5ccccn5)c5c(C#N)cnn5c4)c3C)CC2)C1` [Example 21, (R)-6-(1-(1-(1-acryloyl-3-methoxyazetidine-3-carbonyl)piperidin-4-yl)-5-methyl-1H-1,2,3-triazol-4-yl)-4-(2-hydroxy-1-(pyridin-2-yl)ethoxy)pyrazolo[1,5-a]pyridine-3-carbonitrile], the Kd at Ba/F3 BCR-FGFR2 is no less than 1000 nM; at Ba/F3 FGFR3-BAIAP2L1, no less than 1000 nM; on FGFR3, 100 to 250 nM; at FGFR1 it was no less than 1000 nM; at FGFR4, no less than 1000 nM; on FGFR3 (V555M), 250 to 1000 nM. For the same molecule, the Kd at FGFR2 is 250 to 1000 nM; on Ba/F3 ETV5-FGFR4, no less than 1000 nM; at Ba/F3 BCR-FGFR1, no less than 1000 nM.

As a reminder, the Kd is the concentration at which binding is half-saturated.
